This test concerns the target SARS-CoV-2 Main Protease (SARS-CoV-2) (UniProt P0DTD1).

pIC50: −log10 of the molar value. Where “and” joins values, the source holds several entries; their conditions need not be identical. Equal values may be shown once.

What is called pIC50 is the negative decadic logarithm of the IC50, by convention in mol/L. Low values mean a large IC50, high ones a small IC50. On to `NCc1cn(CC(=O)N(Cc2cscn2)c2ccc(-c3ccccc3)nc2)nn1`, for which the pIC50 was under 4.00.
On to `O=C(NCCc1cccc(F)c1)C(c1cccnc1)N(C(=O)c1cocn1)C1CCN(c2ccccc2)C1` (stereo unspecified), for which the pIC50 was under 4.00.
`CCS(=O)(=O)c1c(Cl)cccc1CNC(c1cccc(F)c1)C1CC1` (stereo unspecified) gave a pIC50 of under 4.00.
In turn, `O=C(CN1CC(C(=O)Nc2cncc3cc(F)ccc23)c2cc(Cl)ccc2C1=O)NCC1CC1` (stereo unspecified) showed a pIC50 of 6.67.
Consider `O=C(Cc1cc(Cl)cc(Nc2cc(Cl)cc([N+](=O)[O-])c2O)c1)Nc1cncc2ccccc12`, for which the pIC50 was 5.33.
Molecule `Cc1cc(F)cc2cncc(NC(=O)Cc3cccc(Cl)c3)c12` gave a pIC50 of 6.07. This pIC50 lies 0.74 log units higher than the previous one.
Regarding `Cc1cc(C)n(C2CCCN(C(=O)c3c[nH]c4ncccc34)C2)n1` (stereo unspecified), the negative-log IC50 (pIC50) is under 4.00.
On to `CNC(=O)CN1CC(C(=O)Nc2cncc3c2CCCC3)c2cc(Cl)ccc2C1=O` (stereo unspecified), for which the pIC50 is 6.35.
For the molecule `C=CC(=O)NCc1ccc(C(=O)NCc2cc(C)cc3c(C)c(C)[nH]c23)cc1`, the pIC50 is under 4.00.
In the case of `Cc1ccncc1NC(=O)N(CCC1CCCCC1)c1cc(Cl)cc(OC(C)C)c1` it was 4.61; in that of `CN1CCN(c2cncc3ccccc23)C(=O)C1c1cccc(Cl)c1` (stereo unspecified), 5.66; in that of `O=C(Nc1cncc2ccccc12)C1(CCC2CC2)CCOc2ccc(Cl)cc21` (stereo unspecified), 4.39.
To `CCOc1c(Cl)cccc1CC(=O)Nc1cncc2ccccc12` belongs 5.16; to `Cc1ccncc1NC(=O)Cc1cc(Cl)cc(OCc2nn(C(=O)OC(C)(C)C)c3ccccc23)c1`, under 4.00.
To `COc1ccccc1N(C(=O)c1ccco1)C(C(=O)NCCc1cccc(F)c1)c1cccnc1` (stereo unspecified) belongs under 4.00; to `C1=C(c2c[nH]c3ccccc23)CCN(Cc2ccno2)C1`, under 4.00.
`Cc1ccc([N+](=O)[O-])c(Nc2cc(Cl)cc(CC(=O)Nc3cncc4ccccc34)c2)c1` showed a pIC50 of 5.65.
Molecule `CN(C)S(=O)(=O)N1CCc2ccc(Cl)cc2C1C(=O)Nc1cncc2ccccc12` (stereo unspecified) gave a pIC50 of 5.71.
With `O=C1CCCN1Cc1cccc(C(=O)N2CCC(C3CCNC3)CC2)c1` (stereo unspecified), the pIC50 is under 4.00.
Regarding `O=C(CCl)N1CCCc2cc(NCc3ccc(F)cc3Cl)ccc21`, the negative-log IC50 (pIC50) was 4.71.
As to `O=C(Cc1cccc(Cl)c1)NC1COCc2ccccc21` (stereo unspecified), the pIC50 was 4.16.
In the case of `Cc1cnn(C)c1C(=O)N1Cc2ccc(Cl)cc2C2(CCN(c3cncc4ccccc34)C2=O)C1` (stereo unspecified), the pIC50 is 6.17.
Molecule `O=C(Nc1ccc2nncn2c1)c1ccc2scnc2c1` showed a pIC50 of under 4.00.
As for `O=C1CC(C(=O)Nc2cncc3ccccc23)c2cc(Cl)cc(Cl)c2N1` (stereo unspecified), the negative logarithm of the IC50 (pIC50) was 5.61 and 5.42.
To `C=CC(=O)N[C@H](Cc1ccccc1)C(=O)NCCN(C)C` (stereo in doubt) belongs under 4.00; to `CO[C@@H]1COC[C@H]1n1cc(C(=O)N(c2ccc(C(C)(C)C)cc2)C(C(=O)NCCc2cccc(F)c2)c2cccnc2)nn1` (stereo in doubt), under 4.00; to `CN(C)CC1(C(=O)Nc2cncc3ccccc23)CCOc2ccc(Cl)cc21` (stereo unspecified), 4.94.
As for `Cc1ccncc1NC(=O)Cc1cc(Cl)cc(OCc2n[nH]c3ccccc23)c1`, the pIC50 is under 4.00.
For `O=C(c1cncc2ccccc12)N1CCN(c2cccc(Cl)c2)CC1`, the negative-log IC50 (pIC50) is 5.80.
`NS(=O)(=O)c1ccc2c(c1)CN(CC1CCN(C(=O)CCl)CC1)CC2` gave a pIC50 of 4.71.
With `CNC(=O)c1cc(Cl)cc(CC(=O)Nc2cnccc2C)c1`, the negative-log IC50 (pIC50) was 4.33 and 4.24.
`COc1ccc2c(NC(=O)C3CN(S(=O)(=O)CC4(C#N)CC4)Cc4ccc(Cl)cc43)cncc2c1` (stereo unspecified) showed a pIC50 of 6.47.
Take `CC(C)(C)c1ccc(N(C(=O)c2cocn2)C(C(=O)NCCc2cccc(F)c2)c2cnc(N3CCOCC3)nc2)cc1` (stereo unspecified): the pIC50 was under 4.00.
On to `CC(=O)C(=O)N1CCN(Cc2cccc(Cl)c2)[C@@H](CC(C)C)C1` (stereo in doubt), for which the pIC50 is under 4.00.
To `CC(C)(C)c1ccc(N(C(=O)c2cn3ccccc3n2)C(C(=O)NCCc2cccc(F)c2)c2cccnc2)cc1` (stereo unspecified) belongs 4.74; to `O=C(Nc1cncc2ccccc12)C1CN(S(=O)(=O)[C@@H]2CCC[C@H]2O)Cc2ccc(Cl)cc21` (stereo in doubt), 6.89 and 6.84; to `CCN(C)S(=O)(=O)N1Cc2ccc(Cl)cc2C2(CCN(c3cncc4ccccc34)C2=O)C1` (stereo unspecified), 6.25.
For the molecule `Cc1nn(-c2cc(Cl)cc(CC(=O)Nc3cncc4ccccc34)c2)c(N)c1Br`, the pIC50 was 5.76. This pIC50 lies 0.49 log units lower than the previous one.
To `Cc1sc2ncnc(N3CCc4c(ncn4C4CC4)C3)c2c1C` belongs under 4.00; to `COc1ccccc1OC1CN(C(=O)c2cc(=O)[nH]c3ccccc23)C1`, under 4.00.
`O=C(NC(c1ccccc1)c1ccccc1)[C@@H]1CN(C(=O)CCl)CCN1S(=O)(=O)c1ccsc1` (stereo in doubt) had a pIC50 of 6.20.
Molecule `N#CC1(CS(=O)(=O)N2Cc3ccc(Cl)cc3[C@@H](C(=O)Nc3cncc4ccccc34)C2)CCS(=O)(=O)CC1` (stereo in doubt) gave a pIC50 of 4.82.
To `C=CC(=O)N(c1ccc(C(F)(F)F)cc1)C(C(=O)NCCc1cccc(F)c1)c1cncc(C#N)c1` (stereo unspecified) belongs 4.95.
Take `C=CC(=O)NCc1ccccc1S(=O)(=O)NC`: the pIC50 was under 4.00.
In turn, `N#CC1(CS(=O)(=O)N2Cc3ccc(Cl)cc3[C@@H](C(=O)Nc3cncc4ccccc34)C2)CCOCC1` (stereo in doubt) had a pIC50 of 4.82.
Molecule `CC1(CS(=O)(=O)N2Cc3ccc(Cl)cc3C3(CCN(c4cncc5cc(S(C)(=O)=O)ccc45)C3=O)C2)CC1` (stereo unspecified) gave a pIC50 of 6.81.
For `O=C(NCCc1cccc(F)c1)C(c1cccnc1)N(C(=O)c1ccco1)[C@H]1C[C@H](c2cc(F)cc(F)c2)C1` (stereo partly specified), the negative logarithm of the IC50 (pIC50) was under 4.00.
Regarding `O=C(NCCc1nnc2n1CCC2)c1cc(O)nc2ccccc12`, the negative logarithm of the IC50 (pIC50) is under 4.00.
As to `O=c1[nH]c(Cc2cccc(C(F)(F)F)c2)nc2cnccc12`, the pIC50 is under 4.00.
For `CC(C)(C)c1ccc(N(C(=O)c2cnsn2)C(C(=O)NCCc2cccc(F)c2)c2cccnc2)cc1` (stereo unspecified), the pIC50 was 4.88.
As for `O=C(Cc1cc(Cl)cc(Nc2ccccc2)c1)Nc1cncc2ccccc12`, the pIC50 is under 5.00.
In the case of `COc1cccc(C(NC(=O)Cc2cccc(Cl)c2)c2nc3ccccc3[nH]2)c1` (stereo unspecified) it was under 4.00; in that of `COCc1csc(N(C(=O)c2cocn2)C(C(=O)NCCc2cccc(F)c2)c2cccnc2)n1` (stereo unspecified), under 4.00.
On to `Cc1ccncc1NC(=O)Cc1cc(Cl)cc(OCc2ncc[nH]2)c1`, for which the pIC50 was under 4.00.
Take `C=CC(=O)N1CCN(S(=O)(=O)c2cccc(F)c2)CC1`: the pIC50 is under 4.00.
On to `O=C(Cc1cc(Cl)cc(-n2c(C3CCNCC3)nc3ccccc32)c1)Nc1cncc2ccccc12`, for which the negative logarithm of the IC50 (pIC50) was 5.65.
The molecule `Cc1cc(C(=O)Nc2cnc3nccn3c2)nn1-c1ccc(F)cc1` showed a pIC50 of under 4.00.
On to `CC(C)(C)c1ccc(N(C(=O)c2cc(=O)n3ncnc3[nH]2)C(C(=O)NCCc2cccc(F)c2)c2cccnc2)cc1` (stereo unspecified), for which the pIC50 was under 4.00.
`O=C(CN1CC(C(=O)Nc2cncc3cc(F)ccc23)c2cc(Cl)ccc2C1=O)NC1CCC1` (stereo unspecified) had a negative-log IC50 (pIC50) of 6.47.
Molecule `NC(=O)c1ccncc1NC(=O)Cc1cccc(Cl)c1` showed a negative logarithm of the IC50 (pIC50) of under 4.00.
For `O=C(Nc1cncc2ccccc12)C1CCOc2c(O)cc(Cl)cc21` (stereo unspecified), the pIC50 is 6.24.
With `CC(C)S(=O)(=O)Nc1ccc2c(NC(=O)C3CN(S(=O)(=O)CC4(C#N)CC4)Cc4ccc(Cl)cc43)cncc2c1` (stereo unspecified), the pIC50 was 7.05.
`CC(O)Cc1c(C(=O)N(c2ccc(C(C)(C)C)cc2)C(C(=O)NCCc2cccc(F)c2)c2cccnc2)[nH][nH]c1=O` (stereo unspecified) gave a pIC50 of under 4.00.
In the case of `Cc1ccncc1NC(=O)Nc1cccc(Cl)c1`, the pIC50 was 4.17 and 4.21.
With `CS(=O)(=O)Nc1ccc2cncc(NC(=O)C3CN(S(=O)(=O)CC4(C#N)CC4)Cc4ccc(Cl)cc43)c2c1` (stereo unspecified), the pIC50 is 6.57.
In turn, `C[C@H](C/C=C/C(C)(C)O)[C@H]1CC[C@@]2(C)[C@@H]3C=C[C@@]45OC[C@]3(CC[C@]12C)[C@@H]4CC[C@H](O)C5(C)C` (stereo in doubt) showed a pIC50 of under 4.00.
To `C=CC(=O)N(c1ccc(C(C)(C)C)cc1)C(C(=O)NCC1CCCO1)c1cccnc1` (stereo unspecified) belongs 4.04.
Turning to `N#CC1(CS(=O)(=O)N2Cc3ccc(Cl)cc3C3(CCN(c4cncc5ccc(OCCN6CCCC6)cc45)C3=O)C2)CC1` (stereo unspecified), the pIC50 is 6.65. Compared with the last molecule, the pIC50 is 2.61 log units higher.
`CC1C(=O)NCCN1C(=O)CCCc1c[nH]c2ccccc12` (stereo unspecified) had a pIC50 of under 4.00.
Take `O=C(NCCc1cccc(F)c1)C(c1cccnc1)N(C(=O)c1cnc[nH]1)C1CCC2(CCO2)CC1` (stereo unspecified): the pIC50 was under 4.00.
For `Cc1ccc2nnc(CNc3ccc4nnc(C(F)(F)F)n4n3)n2c1`, the pIC50 was under 4.00.
Regarding `CS(=O)(=O)Nc1ccc2cncc(NC(=O)C3CCS(=O)(=O)c4ccc(Cl)cc43)c2c1` (stereo unspecified), the pIC50 was 6.69.
For `CNC(=O)C1(N2Cc3ccc(Cl)cc3C3(CCN(c4cncc5ccccc45)C3=O)C2)CC1` (stereo unspecified), the pIC50 was 7.14.
Consider `O=C(NCCc1cccc(F)c1)C(c1cccnc1)N(Cc1ccccc1)C(=O)c1ccco1` (stereo unspecified), for which the pIC50 is under 4.00.
`CS(=O)(=O)c1ccc2c(NC(=O)C34CC(C3)Oc3ccc(Cl)cc34)cncc2c1` gave a pIC50 of 4.64.
`O=C1NC[C@H](C(=O)Nc2cncc3ccccc23)c2cc(Cl)ccc21` (stereo in doubt): the pIC50 was 6.73.
In the case of `O=C(CCl)N1CCN(S(=O)(=O)c2ccsc2)[C@H](C(=O)N2CCN(c3ccccc3)CC2)C1` (stereo in doubt), the pIC50 was 5.70.
For the molecule `Clc1cccc2c1OCCC2Nc1ncccn1` (stereo unspecified), the pIC50 is under 4.00.
As for `O=C(CCl)N1CCC(c2nc(-c3cccnc3)nc3ccccc23)CC1`, the pIC50 was 4.74.
On to `N#CCC1(CS(=O)(=O)N2Cc3ccc(Cl)cc3C(C(=O)Nc3cncc4ccccc34)C2)CC1` (stereo unspecified), for which the pIC50 is 6.89.
On to `OCCn1c(CSc2nc3ccccc3o2)nc2ccc(Cl)cc21`, for which the pIC50 is 6.49.
In the case of `Cc1ccc(NC2=C(c3ccccc3)C(=O)N(Cc3cccnc3)C2=O)cc1C` it was under 4.00; in that of `Cc1cccc2cncc(N3CCC4(CCOc5ccc(Cl)cc54)C3)c12` (stereo unspecified), under 4.00.
Regarding `CCC(=O)Nc1ccc(N(Cc2cscn2)C(=O)Cn2nnc3ccccc32)cc1`, the negative logarithm of the IC50 (pIC50) is 4.60.
Molecule `O=C(Cc1cncc2ccccc12)Nc1cc(Cl)cc(OC2CCC(=O)N2)c1` (stereo unspecified) showed a pIC50 of 4.42.
Consider `Cc1nc(-c2cccc(NCc3ccccc3C)c2)n[nH]1`, for which the negative logarithm of the IC50 (pIC50) was under 4.00.

The values above are taken from the COVID Moonshot data (paper PMC7615835).
